Test results published in patent US10111874B2, “Combination therapies for treatment of cancer” (Araxes Pharma LLC, priority 2014, dated 2018).
Note: test concentration or dose not given here.

These molecules were tested against T1, KRAS G12C 1-169, his-tagged protein, GDP-loaded (Homo sapiens, UniProt P01116, G12C) (assay: Biochemical assay: covalent binding to KRAS G12C analyzed by mass spectrometry). Settings: compounds 1-47, measured at 24 h.
T1 construct: KRAS G12C 1-169, his-tagged protein, GDP-loaded
T1 sequence (P01116 1-169 isoform P01116-2 G12C): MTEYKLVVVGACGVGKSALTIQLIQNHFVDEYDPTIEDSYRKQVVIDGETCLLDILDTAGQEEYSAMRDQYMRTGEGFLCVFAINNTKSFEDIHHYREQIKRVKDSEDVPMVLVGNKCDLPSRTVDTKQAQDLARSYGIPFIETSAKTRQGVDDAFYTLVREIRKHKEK
For C=CC(=O)N1CCN(c2ncnc3cc(C4CC4)c(-c4ccc(C5CC5)cc4)cc23)CC1 [Compound I-41, 1-(4-(7-cyclopropyl-6-(4-cyclopropylphenyl)quinazolin-4-yl)piperazin-1-yl)prop-2-en-1-one], the Binding % was “+ (+indicates binding activity from 5% to 25%)”. With C=CC(=O)N1CCC(Nc2n[nH]c3cc(Cl)c(-c4ccccc4Cl)cc23)CC1 [Compound I-31, 1-(4-(6-chloro-5-(2-chlorophenyl)-1H-indazol-3-ylamino)piperidin-1-yl)prop-2-en-1-one] the Binding % was “+ (+indicates binding activity from 5% to 25%)”.

Same assay, conditions: compounds 48-246, measured at 2 h
In the case of C=CC(=O)N1CCN(c2ncnc3cc(-c4nn(C)c5ccccc45)c(Cl)cc23)CC1 [Compound I-226, 1-(4-(6-chloro-7-(1-methyl-1H-indazol-3-yl)quinazolin-4-yl)piperazin-1-yl)prop-2-en-1-one], the Binding % is reported as “+ (+indicates binding activity from 5% to 25%)”. In the case of C=CC(=O)N1CCN(c2ncnc3cc(-c4cccc5cn[nH]c45)c(Cl)cc23)CC1 [Compound I-152, 1-(4-(6-chloro-7-(1H-indazol-7-yl)quinazolin-4-yl)piperazin-1-yl)prop-2-en-1-one], the Binding % is reported as “+++ (+++indicates binding activity greater than 50% and up to 75%)”. In the case of C=CC(=O)N1CCN(c2ncnc3cc(-c4ccccc4)c(Cl)cc23)CC1CO (stereo not shown) [Compound I-116, 1-(4-(6-chloro-7-phenylquinazolin-4-yl)-2-(hydroxymethyl)piperazin-1-yl)prop-2-en-1-one], the Binding % is reported as “++ (++indicates binding activity greater than 25% and up to 50%)”. C=CC(=O)N1CCN(c2ncnc3cc(-c4cccc5c4CC(=O)N5)c(Cl)cc23)CC1 [Compound I-160, 4-(4-(4-acryloylpiperazin-1-yl)-6-chloroquinazolin-7-yl)indolin-2-one] was tested, and the Binding % was “+ (+indicates binding activity from 5% to 25%)”. For C=CC(=O)N1CCN(c2ncnc3cc(-c4ccnc5ccccc45)c(Cl)cc23)CC1 [Compound I-214, 1-(4-(6-chloro-7-(quinolin-4-yl)quinazolin-4-yl)piperazin-1-yl)prop-2-en-1-one], the Binding % was “+ (+indicates binding activity from 5% to 25%)”. C=CC(=O)N1CCN(c2ncnc3cc(-c4cc(O)c(F)cc4F)c(Cl)cc23)CC1 [Compound I-206, 1-(4-(6-chloro-7-(2,4-difluoro-5-hydroxyphenyl)quinazolin-4-yl)piperazin-1-yl)prop-2-en-1-one] was tested, and the Binding % was “++++ (++++indicates binding activity greater than 75%)”. With C=CC(=O)N1CCN(c2ncnc3c(F)c(-c4ccccc4C(F)(F)F)c(Cl)cc23)CC1 [Compound I-209, 1-(4-(6-chloro-8-fluoro-7-(2-(trifluoromethyl)phenyl)quinazolin-4-yl)piperazin-1-yl)prop-2-en-1-one] the Binding % was “++++ (++++indicates binding activity greater than 75%)”. In the case of C=CC(=O)N1CCN(c2ncnc3cc(-c4ccccc4C(F)(F)F)c(Cl)cc23)CC1 [Compound I-100, 1-(4-(6-chloro-7-(2-(trifluoromethyl)phenyl)quinazolin-4-yl)piperazin-1-yl)prop-2-en-1-one], the Binding % is reported as “+++ (+++indicates binding activity greater than 50% and up to 75%)”. In the case of C=CC(=O)N1CCN(c2ncnc3cc(Cl)c(Br)cc23)CC1C#N (stereo not shown) [Compound I-49, 1-acryloyl-4-(6-bromo-7-chloroquinazolin-4-yl)piperazine-2-carbonitrile], the Binding % is reported as “++++ (++++indicates binding activity greater than 75%)”. In the case of C=CC(=O)N1CCN(c2nc(C)nc3cc(Cl)c(-c4ccc(Cl)cc4)cc23)CC1C#N (stereo not shown) [Compound I-56, 1-acryloyl-4-(7-chloro-6-(4-chlorophenyl)-2-methylquinazolin-4-yl)piperazine-2-carbonitrile], the Binding % is reported as “++++ (++++indicates binding activity greater than 75%)”. With C=CC(=O)N1CC(N2CCN(C(=O)OC(C)(C)C)CC2)C1 [Example 50, tert-butyl 4-(1-acryloylazetidin-3-yl)piperazine-1-carboxylate] the Binding % was “+ (+indicates binding activity from 5% to 25%)”. With C=CC(=O)N1CCN(c2ncnc3cc(-c4ccccc4F)c(C#N)cc23)CC1 [Compound I-137, 4-(4-acryloylpiperazin-1-yl)-7-(2-fluorophenyl)quinazoline-6-carbonitrile] the Binding % was “+ (+indicates binding activity from 5% to 25%)”. For C=CC(=O)N1CCN(c2ncnc3cc(-c4cccc(O)c4)c(Cl)cc23)CC1 [Compound I-75, 1-(4-(6-chloro-7-(3-hydroxyphenyl)quinazolin-4-yl)piperazin-1-yl)prop-2-en-1-one], the Binding % was “+ (+indicates binding activity from 5% to 25%)”. In the case of C=CC(=O)N1CCN(c2ncnc3cc(-c4c(O)ccc5ccccc45)c(C(F)(F)F)cc23)CC1 [Compound I-218, 1-(4-(7-(2-hydroxynaphthalen-1-yl)-6-(trifluoromethyl)quinazolin-4-yl)piperazin-1-yl)prop-2-en-1-one], the Binding % is reported as “+++ (+++indicates binding activity greater than 50% and up to 75%)”. With C=CC(=O)N1CCN(c2ncnc3cc(-c4ccccc4)c(Cl)cc23)CC1 [Compound I-67, 1-(4-(6-chloro-7-phenylquinazolin-4-yl)piperazin-1-yl)prop-2-en-1-one] the Binding % was “+++ (+++indicates binding activity greater than 50% and up to 75%)”.

Same assay, conditions: compounds 247-342, measured at 30 min
With C=CC(=O)N1CCN(c2ncnc3c(F)c(-c4c(O)cc(F)cc4F)c(Cl)cc23)CC1 [Compound I-280, 1-(4-(6-chloro-7-(2,4-difluoro-6-hydroxyphenyl)-8-fluoroquinazolin-4-yl)piperazin-1-yl)prop-2-en-1-one] the Binding % was “+++ (+++indicates binding activity greater than 50% and up to 75%)”. With C=CC(=O)N1CCN(c2ncnc3c(F)c(-c4c(C)cccc4Cl)c(Cl)cc23)CC1 [Compound I-290, 1-(4-(6-chloro-7-(2-chloro-6-methylphenyl)-8-fluoroquinazolin-4-yl)piperazin-1-yl)prop-2-en-1-one] the Binding % was “+++ (+++indicates binding activity greater than 50% and up to 75%)”. For CN(C)C/C=C/C(=O)N1CCN(c2ncnc3c(F)c(-c4cc(O)cc5ccccc45)c(Cl)cc23)CC1 [Compound 325, (E)-1-(4-(6-chloro-8-fluoro-7-(3-hydroxynaphthalen-1-yl)quinazolin-4-yl)piperazin-1-yl)-4-(dimethylamino)but-2-en-1-one], the Binding % was “++ (++indicates binding activity greater than 25% and up to 50%)”. In the case of Cc1ccc2[nH]ncc2c1-c1c(Cl)cc2c(N3CCN(C(=O)/C=C/CN)CC3)ncnc2c1F [Compound 311, (E)-4-amino-1-(4-(6-chloro-8-fluoro-7-(5-methyl-1H-indazol-4-yl)quinazolin-4-yl)piperazin-1-yl)but-2-en-1-one], the Binding % is reported as “+++ (+++indicates binding activity greater than 50% and up to 75%)”. With Cc1ccc2[nH]ncc2c1-c1c(Cl)cc2c(N3CCN(C(=O)/C=C/CN(C)C)CC3)nc(-c3cncs3)nc2c1F [Compound 333, (E)-1-(4-(6-chloro-8-fluoro-7-(5-methyl-1H-indazol-4-yl)-2-(thiazol-5-yl)quinazolin-4-yl)piperazin-1-yl)-4-(dimethylamino)but-2-en-1-one] the Binding % was “+ (+indicates binding activity from 5% to 25%)”. In the case of C=CC(=O)N1CCN(c2c(C#N)cnc3c(F)c(-c4c(C)ccc5cn[nH]c45)c(Cl)cc23)CC1 [Compound 308, 4-(4-acryloylpiperazin-1-yl)-6-chloro-8-fluoro-7-(6-methyl-1H-indazol-7-yl)quinoline-3-carbonitrile], the Binding % is reported as “+++ (+++indicates binding activity greater than 50% and up to 75%)”.

Same assay, conditions: determined at 2 hrs
For C=CC(=O)N1CC(N2CCN(C(=O)CNc3cc(Cl)c(CC)cc3O)CC2)C1 [II-52, 1-(3-(4-(2-(5-chloro-4-ethyl-2-hydroxyphenylamino)acetyl)piperazin-1-yl)azetidin-1-yl)prop-2-en-1-one], the Binding % was “+ (+indicates binding activity from 5% to 20%)”. For C=CC(=O)N1CC(N2CCN(C(=O)CSc3cc(C4CC4)c(Cl)cc3OC)CC2)C1 [II-65, 1-(3-(4-(2-(4-Chloro-5-cyclopropyl-2-methoxyphenylthio)acetyl)piperazin-1-yl)azetidin-1-yl)prop-2-en-1-one], the Binding % was “+ (+indicates binding activity from 5% to 20%)”.

Same assay, conditions: determined at 24 hrs
In the case of C=CC(=O)N1CC(N2CCN(C(=O)c3cc(-c4cc(Cl)ccc4Cl)c(Cl)cc3OC)CC2)C1 [II-13, 1-(3-(4-(2′,5′,6-trichloro-4-methoxybiphenyl-carbonyl)piperazin-1-yl)azetidin-1-yl)prop-2-en-1-one], the Binding % is reported as “++ (++indicates binding activity greater than 15% and up to 25%)”. In the case of C=CC(=O)NC1CN(C2CN(C(=O)CNc3cc(Br)c(Cl)cc3O)C2)C1 [II-36, N-(1′-(2-(5-bromo-4-chloro-2-hydroxyphenylamino)-acetyl)-1,3′-biazetidin-3-yl)acrylamide], the Binding % is reported as “++++ (++++indicates binding activity greater than 50%)”. With CN(C)C/C=C/C(=O)N1CC(N2CCN(C(=O)CNc3cc(Cl)c(Cl)cc3O)CC2)C1 [II-20, (E)-1-(3-(4-((4,5-dichloro-2-hydroxyphenyl)-glycyl)piperazin-1-yl)azetidin-1-yl)-4-(dimethylamino)but-2-en-1-one] the Binding % was “++ (++indicates binding activity greater than 15% and up to 25%)”. For C=CC(=O)N1CC(N2CCN(C(=O)CNc3cc(O)c(Cl)c(Cl)c3)CC2)C1 [II-27, 1-(3-(4-(2-(3,4-dichloro-5-hydroxyphenyl-amino)acetyl)piperazin-1-yl)azetidin-1-yl)prop-2-en-1-one], the Binding % was “++ (++indicates binding activity greater than 15% and up to 25%)”. For C=CC(=O)NC1CN(C2CN(C(=O)CNc3cc(C4CC4)c(Cl)cc3O)C2)C1 [II-45, N-(1′-(2-(4-chloro-5-cyclopropyl-2-hydroxyphenyl-amino)acetyl)-1,3′-biazetidin-3-yl)acrylamide], the Binding % was “++++ (++++indicates binding activity greater than 50%)”. C=CC(=O)N1CCN(C(=O)c2cc(-c3ccc(Cl)cc3Cl)c[nH]2)CC1 [III-32, 1-(4-(4-(2,4-Dichlorophenyl)-1H-pyrrole-2-carbonyl)piperazin-1-yl)prop-2-en-1-one] was tested, and the Binding % was “++++ (++++indicates binding activity greater than 30%)”.
